# From patent US7723323B2, “Pharmaceutical use of fused 1,2,4-triazoles” (High Point Pharmaceuticals, LLC, priority 2003, dated 2010)
# Molecular target: T1, h-11βHSD1 (Homo sapiens, UniProt P28845)
# T1 construct: made in house; host or cells: yeast (extract of transformed yeast)
# Experiment: 11βHSD1 enzyme assay (SPA)
# Type: biochemical
# Conditions: extract of yeast transformed with h-11βHSD1; 120 nM 3H-cortisone, 4 mM β-NADPH, 60 min at 30° C.
# Experimental: ^3H-cortisone and anti-rabbit Ig coated scintillation proximity assay (SPA) beads were purchased from Amersham Pharmacia Biotech, β-NADPH was from Sigma and rabbit anti-cortisol antibodies were from Fitzgerald. An extract of yeast transformed with h-11βHSD1 (Hult et al., FEBS Lett. 441, 25 (1998)) was used as the source of enzyme. The test compounds were dissolved in DMSO (10 mM). All dilutions were performed in a buffer containing 50 mM TRIS-HCl (Sigma Chemical Co), 4 mM EDTA (Sigma Chemical Co), 0.1% BSA (Sigma Chemical Co), 0.01% Tween-20 (Sigma Chemical Co) and 0.005% bacitracin (Novo Nordisk A/S), pH=7.4. Optiplate 96 wells plates were supplied by Packard. The amount of ^3H-cortisol bound to the SPA beads was measured on TopCount NXT, Packard.
# h-11βHSD1, 120 nM ^3H-cortisone, 4 mM β-NADPH, antibody (1:200), serial dilutions of test compound and SPA particles (2 mg/well) were added to the wells. The reaction was initiated by mixing the different components and was allowed to proceed under shaking for 60 min at 30° C. […] Data was analysed using GraphPad Prism software.
# T1 sequence (P28845 whole entry): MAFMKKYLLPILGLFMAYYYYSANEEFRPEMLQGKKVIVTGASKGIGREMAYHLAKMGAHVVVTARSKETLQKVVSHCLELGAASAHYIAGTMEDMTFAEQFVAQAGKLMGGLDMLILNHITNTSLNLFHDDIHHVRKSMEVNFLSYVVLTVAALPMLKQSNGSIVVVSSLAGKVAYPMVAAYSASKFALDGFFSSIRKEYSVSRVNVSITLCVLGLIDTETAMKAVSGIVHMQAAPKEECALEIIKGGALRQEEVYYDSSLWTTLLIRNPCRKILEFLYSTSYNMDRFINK
row,IC50,SMILES
1,110 nM,c1ccc(OCc2ccccc2-c2nnc3n2CCCCC3)cc1 [Example 1-a]
2,230 nM,"Brc1ccccc1-c1nnc2n1CCCCC2 [Example 1, 3-(2-Bromo-phenyl)-6,7,8,9-tetrahydro-5H-[1,2,4]triazolo[4,3-a]azepine]"
